In US20200345049A1, “COMPOSITIONS” (Givaudan, S.A., priority 2017, published 2020):
Several values for one entry are separate records, joined by “and”; a condition that tells them apart may be missing. Equal entries are not always repeated.

Legend:
Assay type in all cases: in vivo, human
[1] = system: sweet sensitive taste panel; assay: Sweetness enhancement: sweetener added to 5% (w/v) sucrose, ranked against 5, 6, 6.5 and 7% (w/v) sucrose solutions; conditions: for Average Score: ranked against 5, 6, 6.5 and 7% sucrose; for Sweetness enhancer effect: increase in sweetness of 5% (w/v) sucrose greater than sweetness of the sweetener alone
Procedure: This solution was then ranked against 5, 6, 6.5 and 7% (w/v) sucrose solutions. This was repeated for 45 ppm Luo Han Guo extract. The average score of each solution was determined. […] These solutions were then ranked against 5, 6, 6.5 and 7% (w/v) sucrose solutions. The average score of each solution was determined.

[2] = system: expert panel of seven people; assay: Scoring of sweet taste aspects versus base solution (5% sucrose and 0.03% citric acid); conditions: for Astringent, average score / Lingering Sweet, average score / Overall Sweet, average score / Upfront Sweet, average score / Volatile Off-Note, average score: score versus base, 0 same, 3 much higher, −3 much lower
[3] = system: sweet sensitive taste panel; assay: Sweetness ranking against sucrose solutions to determine sucrose equivalence
Description: The term “sucrose equivalence” refers to the equivalence in sweetness of a composition containing at least one non-sucrose sweetener to a reference sucrose solution. Typically, taste panellists are trained to detect sweetness of reference sucrose solutions containing between 1% and 15% sucrose (w/v). Other non-sucrose sweeteners may then be tasted at a series of dilutions to determine the concentration of the non-sucrose sweetener that is as sweet (i.e. isosweet) to a given sucrose reference. The term “isosweet” refers to compositions that have equivalent sweetness. Typically, the sweetness of a given composition is measured with reference to a solution of sucrose. See “A Systematic Study of Concentration-Response Relationships of Sweeteners,” G. E. DuBois, D. E. Walters, S. S. Schiffman, Z. S. Warwick, B. J. Booth, S. D. Pecore, K. Gibes, B. T. Carr, and L. M. Brands, in Sweeteners: Discovery, Molecular Design and Chemoreception, D. E. Walters, F. T. Orthoefer, and G. E. DuBois, Eds., American Chemical Society, Washington, D.C. (1991), pp 261-276.
A sweet sensitive taste panel ranked the sweetness of solutions of a mixture of sweeteners (“Mixture 1”) in relation to sucrose solutions at a range of concentrations to determine sucrose equivalence. Mixture 1 was a combination of fractions 11 to 18 of Example 2 and contained 8.16 wt % 11-O-mogroside V and 61.6 wt % mogroside V. The results are shown in Table 6 below.
A sweet sensitive taste panel ranked the sweetness of solutions of various sweeteners (mogroside V, mogroside IV, siamenoside, neomogroside, 11-O-mogroside V) in relation to sucrose solutions at a range of concentrations to determine sucrose equivalence. The sweeteners were obtained using an Agilent 1100 preparative HPLC system with a Phenomenex Luna C18 (2) column (5 μm, 210×21.4 mm).

[4] = system: expert panel of three people (trained flavourists); assay: Descriptive taste test in 5% sucrose and 0.03% citric acid compared to Luo Han Guo extract; conditions: for Taste description: added to 5% sucrose and 0.03% citric acid; for Sweet quality compared to Luo Han Guo extract: in 5% sucrose and 0.03% citric acid
Procedure: (§1) The taste of various concentrations of mixture 1 was tested by an expert panel of three people (trained flavourists) in solutions containing 5% sucrose and 0.03% citric acid. The taste was compared to the Luo Han Guo extract used in Example 2 (obtained from Azile LCC (Rolling Hills Est, California) (extract 1 of Example 1 above) and containing about 68 wt % mogrosides) (combined with the same 5% sucrose and 0.03% citric acid solution).
as §1, with “these sweeteners” for “various concentrations of mixture 1”, “mogrosides).” for “mogrosides) (combined with the same 5% sucrose and 0.03% citric acid solution).”

[5] = system: Four sweet sensitive panelists; assay: Iso-sweet potency versus standard sucrose solutions; conditions: for Iso-sweet potency: calculated from mean sweet equivalence concentrations
Procedure: 10 mg iso-mogroside VI (FIG. 7) was dissolved in […] water to make 100 ppm iso-mogroside VI solution. The working solution of 11-epi-mogroside V (FIG. 8) was 374 ppm (9.34 mg 11-epi-mogroside V in 25 mL water), A series of standard sucrose solutions were prepared (0.50, 0.75, 1.00, 1.25, 1.50%) as sweetness references.
Four sweet sensitive panelists evaluated 100 ppm iso-mogroside VI and 374 ppm 11-epi-mogroside V and the sucrose standards, and were asked to give sweet equivalence concentrations to sucrose. The mean sweet equivalence concentrations of each compound were used to calculate the iso-sweet potency.

C[C@H](CC[C@@H](O[C@@H]1O[C@H](CO[C@H]2O[C@H](CO)[C@H](O)[C@H](O)[C@H]2O)[C@@H](O)[C@H](O)[C@H]1O[C@@H]1O[C@H](CO)[C@@H](O)[C@H](O)[C@H]1O)C(C)(C)O)[C@H]1CC[C@@]2(C)[C@H]3CC=C4[C@@H](CC[C@H](O[C@@H]5O[C@H](CO[C@@H]6O[C@H](CO)[C@@H](O)[C@H](O)[C@H]6OC6O[C@H](CO)[C@@H](O)[C@H](O)[C@H]6O)[C@@H](O)[C@H](O)[C@H]5O)C4(C)C)[C@]3(C)[C@H](O)C[C@]12C (stereo partly shown) [Neomogroside]
Average Score ([1]; 30 ppm in 5% (w/v) sucrose): 6.35
Sweetness enhancer effect [1]: act as sweetness enhancers
Astringent, average score ([2]; Table 16, 30 ppm): 0
Lingering Sweet, average score ([2]; Table 16, 30 ppm): 0.4
Overall Sweet, average score ([2]; Table 16, 30 ppm): 1.4
Upfront Sweet, average score ([2]; Table 16, 30 ppm): 1
Volatile Off-Note, average score ([2]; Table 16, 30 ppm): 0
Total of sweetness ranks ([3]; Table 13, 25 ppm Neomogroside, 9 panelists): 16
Total of sweetness ranks ([3]; Table 13, 30 ppm Neomogroside, 9 panelists): 29
Taste description [4]: sweetness, but slightly bitter aftertaste
Sweet quality compared to Luo Han Guo extract [4]: better than Luo Han Guo extract in terms of sweet quality

3-O-β-D-glucopyranosyl(1→6)-β-D-glucopyranosyl-mogrol-24-O-β-D-glucopyranosyl-(1→6-[β-D-glucopyranosyl-(1→4)-β-D-glucopyranosyl-(1→2)]-β-D-glucopyranosyl [iso-mogroside VI]
Sweet equivalence concentration to sucrose ([5]; 100 ppm in water): 0.91 % sucrose
Iso-sweet potency [5]: 91 times of sweetness of sucrose
Comments ([2]; Table 20, 25 ppm in 5% sucrose and 0.03% citric acid): Slightly acidic
Astringent, average score ([2]; Table 20, 25 ppm): 0
Lingering Sweet, average score ([2]; Table 20, 25 ppm): 0.2
Overall Sweet, average score ([2]; Table 20, 25 ppm): 0.2
Upfront Sweet, average score ([2]; Table 20, 25 ppm): 0.2
Volatile Off-Note, average score ([2]; Table 20, 25 ppm): 0

C[C@H](CC[C@@H](O[C@@H]1O[C@H](CO[C@@H]2O[C@H](CO)[C@@H](O)[C@H](O)[C@H]2O)[C@@H](O)[C@H](O)[C@H]1O[C@@H]1O[C@H](CO)[C@@H](O)[C@H](O)[C@H]1O)C(C)(C)O)[C@H]1CC[C@@]2(C)[C@@H]3CC=C4[C@@H](CC[C@H](O[C@@H]5O[C@H](CO[C@@H]6O[C@H](CO)[C@@H](O)[C@H](O)[C@H]6O)[C@@H](O)[C@H](O)[C@H]5O)C4(C)C)[C@]3(C)[C@@H](O)C[C@]12C [11-epi-mogroside V, 3-O-β-D-glucopyranosyl(1→6)-β-D-glucopyranosyl-11β-OH-mogrol-24-O-β-D-glucopyranosyl-(1→2)-[β-D-glucopyranosyl-(1→6)]-β-D-glucopyranosyl]
Sweet equivalence concentration to sucrose ([5]; 374 ppm in water): 1.31 % sucrose
Iso-sweet potency [5]: 35 times of sweetness of sucrose
Astringent, average score ([2]; Table 20, 25 ppm): 0
Lingering Sweet, average score ([2]; Table 20, 25 ppm): 0
Overall Sweet, average score ([2]; Table 20, 25 ppm): 0.17
Upfront Sweet, average score ([2]; Table 20, 25 ppm): 0.33
Volatile Off-Note, average score ([2]; Table 20, 25 ppm): 0

OC[C@H]1O[C@@](CO)(O[C@H]2O[C@H](CO)[C@@H](O)[C@H](O)[C@H]2O)[C@@H](O)[C@@H]1O [Sucrose]
Total of sweetness ranks ([3]; Table 6, 1% Sucrose reference, 10 panelists): 33
Sweetness rank by panelist ([3]; Table 6, 1.5% Sucrose reference): 4 and 5
Total of sweetness ranks ([3]; Table 6, 1.5% Sucrose reference, 10 panelists): 47
Total of sweetness ranks ([3]; Table 9, 0.5% Sucrose reference, 6 panelists): 8
Sweetness rank by panelist ([3]; Table 9, 1% Sucrose reference): 3 and 2 and 4
Total of sweetness ranks ([3]; Table 9, 1% Sucrose reference, 6 panelists): 19
Sweetness rank by panelist ([3]; Table 9, 1.5% Sucrose reference): 5 and 4
Total of sweetness ranks ([3]; Table 9, 1.5% Sucrose reference, 6 panelists): 29
Total of sweetness ranks ([3]; Table 10, Sucrose 0.5% reference, 7 panelists): 14
Total of sweetness ranks ([3]; Table 10, Sucrose 1% reference, 7 panelists): 23
Sweetness rank by panelist ([3]; Table 10, Sucrose 1.5% reference): 5
Total of sweetness ranks ([3]; Table 10, Sucrose 1.5% reference, 7 panelists): 35
Sweetness rank by panelist ([3]; Table 11, Sucrose 0.5% reference): 1 and 2
Total of sweetness ranks ([3]; Table 11, Sucrose 0.5% reference, 7 panelists): 8
Sweetness rank by panelist ([3]; Table 11, Sucrose 1% reference): 4 and 2 and 3
Total of sweetness ranks ([3]; Table 11, Sucrose 1% reference, 7 panelists): 24
Sweetness rank by panelist ([3]; Table 11, Sucrose 1.5% reference): 5
Total of sweetness ranks ([3]; Table 11, Sucrose 1.5% reference, 7 panelists): 35
Total of sweetness ranks ([3]; Table 12, Sucrose 0.5% reference, 7 panelists): 9
Sweetness rank by panelist ([3]; Table 12, Sucrose 1% reference): 2 and 3
Total of sweetness ranks ([3]; Table 12, Sucrose 1% reference, 7 panelists): 17
Sweetness rank by panelist ([3]; Table 12, Sucrose 1.5% reference): 3 and 4
Total of sweetness ranks ([3]; Table 12, Sucrose 1.5% reference, 7 panelists): 27
Total of sweetness ranks ([3]; Table 13, 0.5% Sucrose reference, 9 panelists): 15
Sweetness rank by panelist ([3]; Table 13, 1% Sucrose reference): 3 and 4 and 2
Total of sweetness ranks ([3]; Table 13, 1% Sucrose reference, 9 panelists): 31
Sweetness rank by panelist ([3]; Table 13, 1.5% Sucrose reference): 5 and 4
Total of sweetness ranks ([3]; Table 13, 1.5% Sucrose reference, 9 panelists): 44

C[C@H](CC[C@@H](O[C@@H]1O[C@H](CO)[C@@H](O)[C@H](O)[C@H]1O[C@@H]1O[C@H](CO)[C@@H](O)[C@H](O)[C@H]1O)C(C)(C)O)[C@H]1CC[C@@]2(C)[C@H]3CC=C4[C@@H](CC[C@H](O[C@@H]5O[C@H](CO[C@@H]6O[C@H](CO)[C@@H](O)[C@H](O)[C@H]6O)[C@@H](O)[C@H](O)[C@H]5O)C4(C)C)[C@]3(C)[C@H](O)C[C@]12C [Mogroside IV]
Average Score ([1]; 30 ppm in 5% (w/v) sucrose): 6.2
Astringent, average score ([2]; Table 16, 30 ppm): 0
Lingering Sweet, average score ([2]; Table 16, 30 ppm): 0
Overall Sweet, average score ([2]; Table 16, 30 ppm): 0.4
Upfront Sweet, average score ([2]; Table 16, 30 ppm): 0.4
Volatile Off-Note, average score ([2]; Table 16, 30 ppm): 0
Total of sweetness ranks ([3]; Table 10, 25 ppm Mogroside IV, 7 panelists): 13
Total of sweetness ranks ([3]; Table 10, 30 ppm Mogroside IV, 7 panelists): 20
Taste description [4]: good and similar sweetness as mogroside V
Sweet quality compared to Luo Han Guo extract [4]: better than Luo Han Guo extract in terms of sweet quality

C[C@H](CC[C@@H](O[C@@H]1O[C@H](CO[C@@H]2O[C@H](CO)[C@@H](O)[C@H](O)[C@H]2O)[C@@H](O)[C@H](O)[C@H]1O[C@@H]1O[C@H](CO)[C@@H](O)[C@H](O)[C@H]1O)C(C)(C)O)[C@H]1CC[C@@]2(C)[C@H]3CC=C4[C@@H](CC[C@H](O[C@@H]5O[C@H](CO)[C@@H](O)[C@H](O)[C@H]5O)C4(C)C)[C@]3(C)[C@H](O)C[C@]12C [Siamenoside]
Average Score ([1]; 25 ppm in 5% (w/v) sucrose): 6.4
Sweetness enhancer effect [1]: act as sweetness enhancers
Astringent, average score ([2]; Table 16, 25 ppm): 0.4
Lingering Sweet, average score ([2]; Table 16, 25 ppm): 0.6
Overall Sweet, average score ([2]; Table 16, 25 ppm): 1.8
Upfront Sweet, average score ([2]; Table 16, 25 ppm): 1.4
Volatile Off-Note, average score ([2]; Table 16, 25 ppm): 0.2
Total of sweetness ranks ([3]; Table 11, Siamenoside 20 ppm, 7 panelists): 19
Sweetness rank by panelist ([3]; Table 11, Siamenoside 25 ppm): 2 and 3 and 4
Total of sweetness ranks ([3]; Table 11, Siamenoside 25 ppm, 7 panelists): 19
Taste description [4]: more sweet body, sweeter, rounder with a little more upfront and more round lasting sweet
Sweet quality compared to Luo Han Guo extract [4]: better than Luo Han Guo extract in terms of sweet quality
